Laboratory results as given in EPA's ToxValDB 9.5.
Values after ≈ are worked out from the molar mass of the structure shown. Values joined by “and” are separate entries in the source; they are usually repeats but may differ in a detail not shown here. Equal values may be shown once. Each block holds one compound with its values, some of them ahead of it.

How the values were obtained:
Rattus norvegicus [1] = settings: uterotrophic, Active
Rattus norvegicus [2] = settings: subchronic, duration: 13 weeks, oral, gavage, M/F, Fischer 344
Rattus norvegicus [3] = settings: oral
Mus musculus = settings: for LD50: acute
Rattus norvegicus [4] = system: Rattus norvegicus
[5] = subchronic, M/F, forestomach lesions, kidney toxicity
[6] = chronic, duration: 91 days, oral, gavage
[7] = chronic, duration: 103 weeks, oral, diet, B6C3F1
[8] = subchronic, duration: 12 weeks, oral, diet, M, B6C3F1
[9] = chronic, duration: 103 weeks, oral, diet, F, Fischer 344
[10] = chronic, duration: 103 weeks, oral, diet, M, Fischer 344
[11] = developmental, duration: 10 days, oral, gavage, Crl:CD(SD)
[12] = subchronic, duration: 12 weeks, oral, diet, F, Fischer 344
[13] = subchronic, duration: 12 weeks, oral, diet, M, Fischer 344
[14] = developmental, M/F, reduced pup weight
[15] = subchronic, M/F, clinical sign (e.g., hunched postures) and reduced body weight
[16] = chronic, duration: 2 years, diet, M/F, hematological effects (females)
[17] = chronic, duration: 2 years, diet, M/F, reduced body weight, increased bun
[18] = chronic, duration: 2 years, diet, M/F, reduced body weight gain (males) increased food and water consumption (males) and females
[19] = developmental, M/F, reduced body weight in parents and pups during lactation

LEL (Rattus norvegicus [1]; duration: 7 days, oral): 5 mg/kg-day
Compound: O=c1cc(-c2ccc(O)cc2)oc2cc(O)cc(O)c12 [Apigenin]

Compound: O=Cc1ccccc1 [Benzaldehyde]
NOEL (Rattus norvegicus [2]; Deaths + Body Weight Changes: decrease + Histopathology: Brain/cerebellum -Degeneration Brain/cerebellum -Necrosis Brain/cerebellum -…): 200 mg/kg-day | LOAEL (Rattus norvegicus [3]; [5]): 400 mg/kg-day | NOEL (Rattus norvegicus [3]; [5]): 143 mg/kg-day and 200 mg/kg-day

LEL (Rattus norvegicus [1]; duration: 3 days, injection, intraperitoneal): 300 mg/kg-day | LEL (Rattus norvegicus [1]; duration: 3 days, injection, subcutaneous): 500 mg/kg-day | LEL (Rattus norvegicus [1]; duration: 3 days, oral): 400 mg/kg-day
Compound: O=C(c1ccccc1)c1ccccc1 [Benzophenone]

Compound: CCCCC(CC)COC(=O)CCCCCCCCC(=O)OCC(CC)CCCC (centres undefined) [Bis(2-ethylhexyl) decanedioate]
LD50 (Mus musculus; oral, gavage): 9500 mg/kg | LD50 (Rattus norvegicus [4]; acute, oral, gavage): 17000 mg/kg

Compound: O=C([O-])c1[nH]n(-c2ccc(S(=O)(=O)[O-])cc2)c(=O)c1N=Nc1ccc(S(=O)(=O)[O-])cc1.[Na+].[Na+].[Na+] [C.I. Acid Yellow 23]
NOAEL (% diet) (Mus musculus; subchronic, duration: 3 months, oral, diet, CD1): 5 | NOAEL (Mus musculus; subchronic, duration: 3 months, oral, diet, F, CD1): 9750 mg/kg-day | NOAEL (Mus musculus; subchronic, duration: 3 months, oral, diet, M, CD1): 8100 mg/kg-day | NOAEL (% diet) (Rattus norvegicus [4]; chronic, duration: 113 weeks, oral, diet): 5 | NOAEL (Rattus norvegicus [4]; chronic, duration: 113 weeks, oral, diet, F): 3350 mg/kg-day | NOAEL (Rattus norvegicus [4]; chronic, duration: 113 weeks, oral, diet, M): 2640 mg/kg-day | NOAEL (Rattus norvegicus [4]; developmental, duration: 19 days, oral, gavage, Osborne-Mendel): > 1000 mg/kg-day | NOAEL (% diet) (Rattus norvegicus [4]; reproduction developmental, duration: 114 weeks, oral, diet): 5 | NOAEL (Rattus norvegicus [4]; reproduction developmental, duration: 114 weeks, oral, diet, M): 2640 mg/kg-day and 3350 mg/kg-day | NOAEL (Rattus norvegicus [4]; reproduction developmental, duration: 19 days, oral, gavage, F, Osborne-Mendel): > 1000 mg/kg-day

Compound: Cc1cc(N=Nc2c(O)ccc3ccccc23)c(S(=O)(=O)[O-])cc1Cl.Cc1cc(N=Nc2c(O)ccc3ccccc23)c(S(=O)(=O)[O-])cc1Cl.[Ba+2] [C.I. Pigment Red 53]
NOAEL (Mus musculus; [6]): 90 mg/kg-day | NOAEL (Rattus norvegicus [4]; [6]): 25 mg/kg-day | NOAEL (Rattus norvegicus [4]; reproduction developmental, duration: 30 months, oral, gavage, F): < 10000 ppm | NOAEL (Rattus norvegicus [4]; reproduction developmental, duration: 30 months, oral, gavage, generation: F0): > 10000 ppm | NOAEL (Rattus norvegicus [4]; reproduction developmental, duration: 30 months, oral, gavage, generation: F1): > 10000 ppm

Compound: O=S(=O)([O-])c1ccc(N=Nc2c(O)ccc3cc(S(=O)(=O)[O-])ccc23)cc1.[Na+].[Na+] [FD&C Yellow 6]
LD50 (Mus musculus; injection, intraperitoneal, ICI Alderley Park Strain): ≥ 4600 mg/kg and ≤ 5500 mg/kg | LD50 (Mus musculus; oral, ICI Alderley Park Strain): > 6000 mg/kg | LOAEL (Mus musculus; [7]): 4620 mg/kg-day | NOAEL (Mus musculus; [7]): 2310 mg/kg-day | LOAEL (Mus musculus; [8]): 19700 mg/kg-day | NOAEL (Mus musculus; [8]): 9850 mg/kg-day | LD50 (Rattus norvegicus [4]; acute, injection, intraperitoneal, Carworth): 3800 mg/kg | LD50 (Rattus norvegicus [4]; acute, oral, Carworth): > 10000 mg/kg | LD50 (Rattus norvegicus [4]; acute, oral, gavage, Wistar): > 2000 mg/kg | LOAEL (Rattus norvegicus [4]; [9]): > 1950 mg/kg-day | NOAEL (Rattus norvegicus [4]; [9]): 1950 mg/kg-day | LOAEL (Rattus norvegicus [4]; [10]): 1950 mg/kg-day | NOAEL (Rattus norvegicus [4]; [10]): 975 mg/kg-day | LOAEL (Rattus norvegicus [4]; [11]): 300 mg/kg-day | NOAEL (Rattus norvegicus [4]; [11]): 100 mg/kg-day | NOAEL (Rattus norvegicus [4]; reproduction developmental, duration: 126 days, oral, diet, Charles River Albino CD (R), generation: F0): 1500 mg/kg-day | NOAEL (Rattus norvegicus [4]; reproduction developmental, duration: 126 days, oral, diet, Charles River Albino CD (R), generation: F1): 1500 mg/kg-day | NOAEL (Rattus norvegicus [4]; reproduction developmental, oral, diet, Crl:CD(SD)): 500 mg/kg-day | LOAEL (Rattus norvegicus [4]; [12]): 1200 mg/kg-day | NOAEL (Rattus norvegicus [4]; [12]): 576 mg/kg-day | LOAEL (Rattus norvegicus [4]; [13]): 2400 mg/kg-day | NOAEL (Rattus norvegicus [4]; [13]): 1200 mg/kg-day

Compound: CCN(CC)c1ccccc1 [N,N-Diethylaniline]
LD50 (Mus musculus; injection, Intraperitoneal): 870 mg/kg | LD50 (Rattus norvegicus [4]; acute, dermal): 5000 mg/kg | LC50 (Rattus norvegicus [4]; acute, inhalation): 1.92 µg/mL (≈ 12.9 µM) | LD50 (Rattus norvegicus [4]; acute, oral): 720 mg/kg | LD50 (Rattus norvegicus [4]; acute, oral, gavage, Wistar): 606 mg/kg | LOAEL (Rattus norvegicus [4]; short-term, duration: 28 days, oral, gavage, Wistar): 10 mg/kg-day

Compound: CC(=O)CC(=O)N(C)C [N,N-Dimethylacetoacetamide]
LD50 (Mus musculus; oral, gavage): ≥ 3200 mg/kg | LD50 (Rattus norvegicus [4]; acute, oral, gavage): ≥ 3200 mg/kg

Compound: CCCCCCCCCCCCCCCCCC(=O)[O-].CCCCCCCCCCCCCCCCCC(=O)[O-].[Ba+2] [Octadecanoic acid, barium salt]
LD50 (Mus musculus; oral): 1830 mg/kg

Compound: C=C(C)[C@H]1Cc2c(ccc3c2O[C@@H]2COc4cc(OC)c(OC)cc4[C@@H]2C3=O)O1 [Rotenone]
LEL (Rattus norvegicus [3]; [14]): 1.88 mg/kg-day | NOEL (Rattus norvegicus [3]; [14]): 0.38 mg/kg-day

Compound: [N-]=[N+]=[N-].[Na+] [Sodium azide]
NOEL (Rattus norvegicus [2]; Deaths + Clinical Observation: Hunched posture Ruffled fur Lethargy Decreased appetite Impaired breathing + Body Weight Changes: decrease + …): < 1.25 mg/kg-day | LOAEL (Rattus norvegicus [3]; [15]): 10 mg/kg-day | NOAEL (Rattus norvegicus [3]; [15]): 5 mg/kg-day

Compound: CCNc1nc(NC(C)(C)C)nc(SC)n1 [Terbutryn]
LEL (Rattus norvegicus [3]; [16]): 15 mg/kg-day | NOEL (Rattus norvegicus [3]; [16]): 0.1 mg/kg-day

Compound: CCN(CC)C(=O)SCc1ccc(Cl)cc1 [Thiobencarb]
LEL (Rattus norvegicus [3]; [17]): 5 mg/kg-day | NOEL (Rattus norvegicus [3]; [17]): 1 mg/kg-day

Compound: CC1(C)[C@H](C(=O)O[C@H](C#N)c2cccc(Oc3ccccc3)c2)[C@@H]1C(Br)C(Br)(Br)Br (some centres undefined) [Tralomethrin]
LEL (Rattus norvegicus [3]; [18]): 3 mg/kg-day | NOEL (Rattus norvegicus [3]; [18]): 0.75 mg/kg-day | LEL (Rattus norvegicus [3]; [19]): 3 mg/kg-day | NOEL (Rattus norvegicus [3]; [19]): 0.75 mg/kg-day

Compound: [O]=[V](=[O])[O][V](=[O])=[O] [Vanadium oxide (V2O5)]
NOAEL (Rattus norvegicus [3]; chronic, reduced hair cystine): 0.89 mg/kg-day
